Test results reported in US8952024B2, “Herbicidal pyrimidone derivatives” (E I du Pont de Nemours and Company, priority 2009, dated 2015).

Experiments:
Assay in all cases: Test B pre-/postemergence plant response
Assay type in all cases: in vivo
[1] = tested on: giant foxtail (Setaria faberii)
Text: (§1) Seeds of plant species selected from blackgrass (Alopecurus myosuroides), downy bromegrass (Bromus tectorum), green foxtail (Setaria viridis), Italian ryegrass (Lolium multiflorum), wheat (Triticum aestivum), wild oat (Avena fatua), deadnettle (henbit deadnettle, Lamium amplexicaule), galium (catchweed bedstraw, Galium aparine), bermudagrass (Cynodon dactylon), Surinam grass (Brachiaria decumbens), cocklebur (Xanthium strumarium), corn (Zea mays), large crabgrass (Digitaria sanguinalis), woolly cupgrass (Eriochloa villosa), giant foxtail (Setaria faberii), goosegrass (Eleusine indica), johnsongrass (Sorghum halepense), kochia (Kochia scoparia), lambsquarters (Chenopodium album), morningglory (Ipomoea coccinea), nightshade (eastern black nightshade, Solanum ptycanthum), yellow nutsedge (Cyperus esculentus), pigweed (Amaranthus retroflexus), ragweed (common ragweed, Ambrosia elatior), Russian thistle (Salsola kali), soybean (Glycine max), sunflower (common oilseed sunflower, Helianthus annuus) and velvetleaf (Abutilon theophrasti) were planted into a blend of loam soil and sand and treated preemergence with test compounds formulated in a non-phytotoxic solvent mixture which included a surfactant.
(§2) At the same time, plants selected from these crop and weed species and also winter barley (Hordeum vulgare), canarygrass (Phalaris minor), chickweed (Stellaria media) and windgrass (Apera spica-venti) were planted in pots containing Redi-Earth® planting medium (Scotts Company, 14111 Scottslawn Road, Marysville, Ohio 43041) comprising spaghnum peat moss, vermiculite, wetting agent and starter nutrients and treated with postemergence applications of some of the test chemicals formulated in the same manner. Plants ranged in height from 2 to 18 cm (1- to 4-leaf stage) for postemergence treatments.
(§3) Treated plants and controls were maintained in a greenhouse for 13 to 15 days, after which time all treated plants were visually evaluated and compared to controls. Plant response ratings, summarized in Table B, are based on a scale of 0 to 100 where 0 is no effect and 100 is complete control. A dash (-) response means no test result.

[2] = tested on: goosegrass (Eleusine indica)
Text: as §1, §2, §3

wild oat (Avena fatua) = tested on: wild oat (Avena fatua)
Text: as §1, §2, §3

[3] = tested on: yellow nutsedge (Cyperus esculentus)
Text: as §1, §2, §3

[4] = tested on: large crabgrass (Digitaria sanguinalis)
Text: as §1, §2, §3

[5] = tested on: blackgrass (Alopecurus myosuroides)
Text: as §1, §2, §3

[6] = tested on: Surinam grass (Brachiaria decumbens)
Text: as §1, §2, §3

[7] = tested on: johnsongrass (Sorghum halepense)
Text: as §1, §2, §3

[8] = tested on: green foxtail (Setaria viridis)
Text: as §1, §2, §3

[9] = tested on: woolly cupgrass (Eriochloa villosa)
Text: as §1, §2, §3

[10] = tested on: velvetleaf (Abutilon theophrasti)
Text: as §1, §2, §3

kochia (Kochia scoparia) = tested on: kochia (Kochia scoparia)
Text: as §1, §2, §3

[11] = tested on: cocklebur (Xanthium strumarium)
Text: as §1, §2, §3

soybean (Glycine max) = tested on: soybean (Glycine max)
Text: as §1, §2, §3

[12] = tested on: morningglory (Ipomoea coccinea)
Text: as §1, §2, §3

[13] = tested on: downy bromegrass (Bromus tectorum)
Text: as §1, §2, §3

corn (Zea mays) = tested on: corn (Zea mays)
Text: as §1, §2, §3

[14] = 250 g ai/ha, Preemergence, 0 to 100 scale
[15] = Postemergence, 31 g ai/ha, scale 0 to 100 (0 no effect, 100 complete control)
[16] = Postemergence, 62 g ai/ha, scale 0 (no effect) to 100 (complete control), 13 to 15 days
[17] = Postemergence, 125 g ai/ha, visual rating after 13 to 15 days, scale 0 (no effect) to 100 (complete control)
[18] = Postemergence, 250 g ai/ha, scale 0 to 100
[19] = Preemergence, 31 g ai/ha, scale 0 to 100 (0 no effect, 100 complete control)
[20] = Preemergence, 62 g ai/ha, scale 0 to 100, 0 no effect, 100 complete control
[21] = Preemergence, 125 g ai/ha, 0 to 100 scale

Cc1cccc(-n2c(-c3ccccc3)ncc(C(=O)C3=C(O)CCCC3=O)c2=O)c1C [Compound 27]
Plant response rating, Foxtail, Giant [1, 14]: 95
Plant response rating, Foxtail, Giant [1, 15]: 65
Plant response rating, Foxtail, Giant [1, 16]: 85
Plant response rating, Foxtail, Giant [1, 17]: 90
Foxtail, Giant plant response rating [1, 18]: 90
Plant response rating, Foxtail, Giant [1, 19]: 0
Plant response rating, Foxtail, Giant [1, 20]: 5
Foxtail, Giant plant response rating [1, 21]: 85
Plant response rating, Goosegrass [2, 14]: 100
Plant response rating, Goosegrass [2, 15]: 90
Plant response rating, Goosegrass [2, 16]: 90
Plant response rating, Goosegrass [2, 17]: 98
Goosegrass plant response rating [2, 18]: 98
Plant response rating, Goosegrass [2, 19]: 80
Goosegrass plant response rating [2, 21]: 100
Plant response rating, Oat, Wild (wild oat (Avena fatua); [14]): 50
Plant response rating, Oat, Wild (wild oat (Avena fatua); [15]): 45
Plant response rating, Oat, Wild (wild oat (Avena fatua); [16]): 50
Plant response rating, Oat, Wild (wild oat (Avena fatua); [17]): 50
Oat, Wild plant response rating (wild oat (Avena fatua); [18]): 65
Plant response rating, Oat, Wild (wild oat (Avena fatua); [19]): 0
Plant response rating, Oat, Wild (wild oat (Avena fatua); [20]): 0
Oat, Wild plant response rating (wild oat (Avena fatua); [21]): 30
Plant response rating, Nutsedge, Yellow [3, 14]: 90
Plant response rating, Nutsedge, Yellow [3, 15]: 30
Plant response rating, Nutsedge, Yellow [3, 16]: 40
Plant response rating, Nutsedge, Yellow [3, 17]: 50
Nutsedge, Yellow plant response rating [3, 18]: 55
Plant response rating, Nutsedge, Yellow [3, 19]: 0
Plant response rating, Nutsedge, Yellow [3, 20]: 20
Nutsedge, Yellow plant response rating [3, 21]: 30
Plant response rating, Crabgrass, Large [4, 14]: 100
Plant response rating, Crabgrass, Large [4, 15]: 50
Plant response rating, Crabgrass, Large [4, 16]: 50
Plant response rating, Crabgrass, Large [4, 17]: 60
Crabgrass, Large plant response rating [4, 18]: 60
Plant response rating, Crabgrass, Large [4, 19]: 5
Plant response rating, Crabgrass, Large [4, 20]: 80
Crabgrass, Large plant response rating [4, 21]: 100
Plant response rating, Blackgrass [5, 14]: 30
Plant response rating, Blackgrass [5, 15]: 0
Plant response rating, Blackgrass [5, 16]: 5
Plant response rating, Blackgrass [5, 17]: 45
Blackgrass plant response rating [5, 18]: 50
Plant response rating, Blackgrass [5, 19]: 0
Plant response rating, Blackgrass [5, 20]: 0
Blackgrass plant response rating [5, 21]: 10
Plant response rating, Surinam Grass [6, 14]: 95
Plant response rating, Surinam Grass [6, 15]: 50
Plant response rating, Surinam Grass [6, 16]: 70
Plant response rating, Surinam Grass [6, 17]: 80
Surinam Grass plant response rating [6, 18]: 80
Plant response rating, Surinam Grass [6, 19]: 0
Plant response rating, Surinam Grass [6, 20]: 20
Surinam Grass plant response rating [6, 21]: 60
Plant response rating, Johnsongrass [7, 14]: 85
Plant response rating, Johnsongrass [7, 15]: 40
Plant response rating, Johnsongrass [7, 16]: 45
Plant response rating, Johnsongrass [7, 17]: 45
Johnsongrass plant response rating [7, 18]: 80
Plant response rating, Johnsongrass [7, 19]: 0
Plant response rating, Johnsongrass [7, 20]: 5
Johnsongrass plant response rating [7, 21]: 50
Plant response rating, Foxtail, Green [8, 14]: 80
Plant response rating, Foxtail, Green [8, 15]: 80
Plant response rating, Foxtail, Green [8, 16]: 80
Plant response rating, Foxtail, Green [8, 17]: 80
Foxtail, Green plant response rating [8, 18]: 90
Plant response rating, Foxtail, Green [8, 19]: 0
Plant response rating, Foxtail, Green [8, 20]: 30
Foxtail, Green plant response rating [8, 21]: 50
Plant response rating, Cupgrass, Woolly [9, 14]: 80
Plant response rating, Cupgrass, Woolly [9, 15]: 60
Plant response rating, Cupgrass, Woolly [9, 16]: 60
Plant response rating, Cupgrass, Woolly [9, 17]: 70
Cupgrass, Woolly plant response rating [9, 18]: 80
Plant response rating, Cupgrass, Woolly [9, 19]: 0
Plant response rating, Cupgrass, Woolly [9, 20]: 0
Cupgrass, Woolly plant response rating [9, 21]: 60
Plant response rating, Velvetleaf [10, 14]: 95
Plant response rating, Velvetleaf [10, 15]: 50
Plant response rating, Velvetleaf [10, 16]: 60
Plant response rating, Velvetleaf [10, 17]: 80
Velvetleaf plant response rating [10, 18]: 90
Plant response rating, Velvetleaf [10, 19]: 55
Plant response rating, Velvetleaf [10, 20]: 85
Velvetleaf plant response rating [10, 21]: 90
Plant response rating, Kochia (kochia (Kochia scoparia); [14]): 100
Plant response rating, Kochia (kochia (Kochia scoparia); [17]): 100
Kochia plant response rating (kochia (Kochia scoparia); [18]): 100
Plant response rating, Kochia (kochia (Kochia scoparia); [19]): 100
Plant response rating, Kochia (kochia (Kochia scoparia); [20]): 100
Kochia plant response rating (kochia (Kochia scoparia); [21]): 100
Plant response rating, Cocklebur [11, 14]: 90
Plant response rating, Cocklebur [11, 15]: 90
Plant response rating, Cocklebur [11, 16]: 95
Plant response rating, Cocklebur [11, 17]: 95
Cocklebur plant response rating [11, 18]: 98
Plant response rating, Cocklebur [11, 19]: 0
Plant response rating, Cocklebur [11, 20]: 85
Cocklebur plant response rating [11, 21]: 85
Plant response rating, Soybean (soybean (Glycine max); [14]): 90
Plant response rating, Soybean (soybean (Glycine max); [15]): 95
Plant response rating, Soybean (soybean (Glycine max); [16]): 95
Plant response rating, Soybean (soybean (Glycine max); [17]): 95
Soybean plant response rating (soybean (Glycine max); [18]): 100
Plant response rating, Soybean (soybean (Glycine max); [19]): 70
Plant response rating, Soybean (soybean (Glycine max); [20]): 70
Soybean plant response rating (soybean (Glycine max); [21]): 80
Plant response rating, Morningglory [12, 14]: 100
Plant response rating, Morningglory [12, 15]: 50
Plant response rating, Morningglory [12, 16]: 80
Plant response rating, Morningglory [12, 17]: 80
Morningglory plant response rating [12, 18]: 90
Plant response rating, Morningglory [12, 19]: 100
Plant response rating, Morningglory [12, 20]: 100
Morningglory plant response rating [12, 21]: 100
Plant response rating, Bromegrass, Downy [13, 14]: 30
Plant response rating, Bromegrass, Downy [13, 15]: 5
Plant response rating, Bromegrass, Downy [13, 16]: 5
Plant response rating, Bromegrass, Downy [13, 17]: 20
Bromegrass, Downy plant response rating [13, 18]: 30
Plant response rating, Bromegrass, Downy [13, 19]: 0
Plant response rating, Bromegrass, Downy [13, 20]: 0
Bromegrass, Downy plant response rating [13, 21]: 0
Plant response rating, Corn (corn (Zea mays); [14]): 0
Plant response rating, Corn (corn (Zea mays); [15]): 35
Plant response rating, Corn (corn (Zea mays); [16]): 40
Plant response rating, Corn (corn (Zea mays); [17]): 50
Corn plant response rating (corn (Zea mays); [18]): 70
Plant response rating, Corn (corn (Zea mays); [19]): 0
Plant response rating, Corn (corn (Zea mays); [20]): 0
Corn plant response rating (corn (Zea mays); [21]): 0
